Laboratory results published in patent US20070244108A1 (priority 2004, published 2007).

What was measured:
Human 11β HSD1 = biological target: T1, Human 11β HSD1 (Homo sapiens, UniProt P28845); assay: 11β HSD1 cortisol radioimmunoassay (RIA), human hepatic microsomes; type: biochemical; conditions: 10 μM compound; typical sd ± 5%, N=2
T1 construct: human hepatic microsomes were obtained from XenoTech, product H0610/Lot 0210078; tissue XenoTech H0610/Lot 0210078; host or cells: human liver (hepatic microsomes)
Description: Standard Operating Procedure for the 11β-Hydroxysteroid Dehydrogenase Type 1 cortisol Radioimmunoassay (11β HSD1 Cortisol RIA).
Prepare 10 mM stock solutions in 100% DMSO at 100 times the required assay concentration. Dilute into assay buffer 1 in 25. Also dilute neat DMSO 1 in 25 into assay buffer for controls.
Dilute this 1 in 50 into assay buffer.
Mix these 3 solutions 1:1:1 to make a solution of sufficient volume for 25 μl additions to each sample.
Dilute stock 20 mg/ml solution 1 in 100 with assay buffer.
Dilute stock antibody solution to 17 μg/ml in antibody binding buffer.
To a u-bottom polypropylene 96 well plate add:
25 μl compound dilution or diluted DMSO to controls, NSB's and blanks
10 μl […] in DMSO (enzyme stop solution) to blanks
25 μl substrate mixture to all samples
50 μl diluted microsomes to all samples
Incubate plate for 30 min at 37° C. shaking
Add 10 μl enzyme stop solution to all wells except the blanks
Add 100 μl antibody solution to all wells except the NSB's, add antibody binding buffer to these wells
Incubate at 37° C. for 1 h
Add 50 μl/well charcoal solution and mix with an 8-channel pipette (4-5 aspirations)
Centrifuge at 4° C., 2000×g for 15 min
Transfer 100 μl supernatant into an Optiplate, also add 25 μl substrate mixture to 2 empty wells to indicate counting efficiency
Add 200 μl Microscint-40 to all wells and count on a Topcount
The 11β HSD1 enzyme assay was carried out following the standard operating procedure described above in u-bottom polypropylene 96 well plates or 1.5 ml Eppendorf tubes as indicated for each experiment. Subsequent to stopping the enzyme reaction, 100 μl antibody prepared in buffer 3 unless otherwise indicated was added to test samples and 100 μl buffer 3 was added to the NSB samples. […] Aliquots of the supernatant (100 μl) were transferred to an Optiplate and counted on the Topcount in 150-200 μl Microscint 40. In some experiments, aliquots of supernatant were transferred to scintillation vials and counted on the Tricarb LSC in 5 ml Ultima Gold scintillant.

T1 sequence (P28845 whole entry): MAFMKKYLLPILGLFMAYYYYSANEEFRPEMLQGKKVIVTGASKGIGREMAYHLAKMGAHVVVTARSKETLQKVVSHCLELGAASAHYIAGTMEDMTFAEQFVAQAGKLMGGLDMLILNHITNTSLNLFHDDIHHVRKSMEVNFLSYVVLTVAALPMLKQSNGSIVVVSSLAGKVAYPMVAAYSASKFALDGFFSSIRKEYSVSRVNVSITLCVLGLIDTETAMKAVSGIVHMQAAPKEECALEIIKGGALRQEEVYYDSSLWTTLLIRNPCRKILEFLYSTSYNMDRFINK

| SMILES | inhibition at 10 µM (Human 11β HSD1) | melting point |
| --- | --- | --- |
| CCCc1ccc(S(=O)(=O)NN2CCN(C)CC2)cc1 [STX551, N-(4-Methylpiperazin-1-yl)-4-propylbenzenesulfonamide] | > 35% | 153 to 154 °C |
| CCCc1ccc(S(=O)(=O)NCCc2ncc[nH]2)cc1 [STX578, N-[2-(4H-Imidazol-2-yl)-ethyl]-4-propylbenzenesulfonamide] | > 35% |  |
| CCCc1ccc(S(=O)(=O)NN2CCOCC2)cc1 [STX586, N-Morpholin-4-yl-4-propyl-benzenesulfonamide] | > 35% | 150 to 152 °C |
